Reference: US11440880B2, “Thalidomide analogs and methods of use” (The USA, as represented by the Secretary, Department of …, priority 2015, dated 2022)

Experiments:
Format in all cases: cell-based, mouse
Parameters in all cases: key: NS=not significant; a “+” sign=anti-inflammatory or increased cell numbers; a “−” sign=cell toxicity or pro-inflammatory
TNF-α protein = TNF-α protein level (ELISA) in LPS-challenged RAW 264.7 cells; conditions: LPS 30 or 60 ng/mL, 24 h
Procedure: (§1) Nitrite levels in the culture media were measured by use of the Griess Reagent System (Promega, Madison, Wis.), following the manufacturer's protocol. The O.D. of unknown samples was read at 520 nm λ, compared to a sodium nitrite standard curve (1.5 μM to 100 μM) and nitrite measured media concentrations expressed as μM units. As the lowest nitrite concentration on the Griess Reagent System standard curve was 1.5 μM, this was chosen as the effective cutoff for defining measurable nitrite concentrations. TNF-α protein levels were measured by use of an ELISA specific for mouse TNF-α protein (BioLegend, San Diego, Calif.) and are expressed as a % change from their appropriate control or as pg/ml.
(§2) RAW 264.7 cells obtained from ATCC (Manassas, Va., USA) were grown in DMEM media supplemented with 10% FCS, penicillin 100 μg/ml and streptomycin 100 μg/ml, and maintained at 37° C. and 5% CO2. Cells were seeded in 24 well plates and, 24 hours later, were utilized in studies. One hour prior to the initiation of any study, the seeding media was replaced with fresh media (1 mL), and the cells were allowed to equilibrate at 37° C. and 5% CO2.
(§3) RAW 264.7 cells were challenged with LPS (Sigma, St Louis, Mo.: serotype 055:B5) from at a final concentration of 30 or 60 ng/mL. This concentration of LPS in RAW 264.7 cells induces a sub-maximal rise in both TNF-alpha and nitrite levels without a loss in cellular viability. This sub-maximal rise is useful for assessing whether the addition of an experimental drug can either lower or further raise levels of TNF-α and nitrite. Twenty four hours following the addition of LPS, conditioned media was harvested and analyzed for quantification of secreted TNF-α protein and nitrite levels. Fresh media was replaced into the wells and cell viability was then assessed.
(§4) Thalidomide and analogs were prepared in tissue culture grade DMSO (Sigma). RAW 264.7 cells were pretreated with thalidomide, analogues or vehicle one hour prior to a challenge with LPS. The effects of various concentrations of thalidomide analogues were assessed. All compounds were synthesized to a chemical purity of >99.5%, as assessed by chemical characterization by a combination of 1H NMR, 13C NMR and GC/MS analyses (Bruker AC-300 spectrometer, together with elemental analyses (Atlantic Microlab, Inc., Norcross, Ga.).

RAW 264.7 cells = test: Cell viability (CellTiter 96 AQueous One) of LPS-challenged RAW 264.7 cells
Procedure: The CellTiter 96® AQueous One Solution Cell Proliferation Assay (Promega, Madison, Wis.) is routinely used as an assay of cell proliferation, and was used according to the manufacturer's recommendations. Changes in cellular health status are determined by use of indirect measures related to the formation of a colored tetrazolium dye product that can be measured spectrophotometrically at 490 nm λ. […] Optical densities (expressed as O.D.s) were measured after various incubations.
as §2, §3, §4

[1] = test system: nitrite levels in the culture media; test: Nitrite level (Griess Reagent System) in LPS-challenged RAW 264.7 cells; conditions: LPS 30 or 60 ng/mL, 24 h
Procedure: as §1, §2, §3, §4

Row | SMILES | TNF-α (TNF-α protein; 3 μM) | TNF-α (TNF-α protein; 10 μM) | TNF-α (TNF-α protein; 30 μM) | Viability (RAW 264.7 cells; 3 μM) | Viability (RAW 264.7 cells; 10 μM) | Viability (RAW 264.7 cells; 30 μM) | TNF-α (TNF-α protein; 1 μM) | Viability (RAW 264.7 cells; 1 μM) | Nitrite ([1]; 1 μM) | Nitrite ([1]; 10 μM) | Nitrite ([1]; 30 μM)
1 | Nc1ccc2c(c1)C(=O)N(C1=CNC(=O)CC1)C2 [Compound 43] | NS | NS | NS | NS | NS | NS |  |  |  |  | 
2 | Nc1ccc2c(c1)C(=O)N(C1CC=CNC1=O)C2 (stereo not shown) [Compound 44] | NS | NS | + | NS | NS | NS |  |  |  |  | 
3 | O=C1CCCC(=O)N1CN1C(=O)CCC(N2Cc3ccccc3C2=O)C1=O (stereo not shown) [Compound 48] |  | + | + |  | NS | NS | + | NS |  |  | 
4 | CC(N1Cc2ccccc2C1=O)C12CC3CC(CC(C3)C1)C2 (stereo not shown) [Compound 71] |  | NS | + |  | NS | − | NS | NS | NS | NS | +
5 | S=C1c2ccccc2CN1C12CC3CC(CC1C3)C2 [Compound 75] |  | + | + |  | NS | NS | NS | NS | NS | NS | NS
6 | O=C1c2cccc([N+](=O)[O-])c2CN1CC12CC3CC(CC(C3)C1)C2 [Compound 78] |  | + | + |  | NS | − | NS | NS | NS | NS | +
7 | Nc1cccc2c1CN(CC13CC4CC(CC(C4)C1)C3)C2=O [Compound 79] |  | NS | NS |  | NS | − | NS | NS | NS | NS | +
8 | O=C1c2cccc([N+](=O)[O-])c2CN1C12CC3CC(CC(O)(C3)C1)C2 [Compound 87] |  | NS | NS |  | NS | NS | NS | NS | NS | NS | NS
9 | Nc1cccc2c1CN(C13CC4CC(CC(O)(C4)C1)C3)C2=O [Compound 88] |  | NS | NS |  | NS | NS | NS | NS | NS | NS | NS
10 | C[C@H]1[C@H](N2Cc3c(cccc3[N+](=O)[O-])C2=O)C[C@@H]2C[C@H]1C2(C)C [Compound 90] |  | + | + |  | NS | NS | + | NS | + | + | +
11 | C[C@@H]1[C@@H](N2Cc3c(cccc3[N+](=O)[O-])C2=O)C[C@H]2C[C@@H]1C2(C)C [Compound 92] |  | + | + |  | − | − | NS | NS | + | + | +
12 | CC1(C)[C@@H]2CC[C@]1(C)[C@H](N1Cc3c(cccc3[N+](=O)[O-])C1=O)C2 [Compound 94] |  | + | + |  |  | − | NS | NS | + | + | +
13 | CC1(C)[C@@H]2CC[C@]1(C)[C@H](N1Cc3c(N)cccc3C1=O)C2 [Compound 95] |  | NS | NS |  | + | + | NS | NS | NS | NS | +
14 | CC1(C)[C@@H]2CC[C@]1(C)[C@@H](N1Cc3c(cccc3[N+](=O)[O-])C1=O)C2 [Compound 96] |  | + | + |  | − | NS | NS | − | + | + | +
15 | CC1(C)[C@@H]2CC[C@]1(C)[C@@H](N1Cc3c(N)cccc3C1=O)C2 [Compound 97] |  | + | NS |  | NS | NS | NS | NS | NS | NS | +
16 | CC1(C)[C@@H]2CC[C@]1(C)[C@@H](N1C=C3C(=CC=C/C3=N\OO)C1=O)C2 [Compound 98] |  | + | + |  | NS | NS | SIG | NS | + | + | +
17 | O=C1c2cccc([N+](=O)[O-])c2CN1[C@@H]1C[C@H]2CC[C@@H]1C2 [Compound 99] |  | NS | + |  | − | − | NS | NS | + | + | +
18 | Nc1cccc2c1CN([C@@H]1C[C@H]3CC[C@@H]1C3)C2=O [Compound 100] |  | NS | NS |  | NS | NS | NS | NS | NS | NS | NS
19 | O=C1c2cccc([N+](=O)[O-])c2CN1[C@H]1C[C@H]2CC[C@@H]1C2 [Compound 101] |  | NS | + |  | − | NS | NS | − | + | + | +
20 | Nc1cccc2c1CN([C@H]1C[C@H]3CC[C@@H]1C3)C2=O [Compound 102] |  | NS | NS |  | NS | NS | NS | NS | NS | NS | NS
21 | CC1(C)[C@@H]2CC[C@H](CN3Cc4c(cccc4[N+](=O)[O-])C3=O)[C@H]1C2 [Compound 103] |  | + | SIG |  | NS | SIG | NS | NS | + | + | NS
22 | c1ccc2c(c1)CN=C2C1=NCc2ccccc21 [Compound 106] | NS | NS | NS | + | + | + |  |  |  |  | 
23 | C[C@H]1[C@H](N2C(=O)C3C4C=CC(C4)C3C2=O)C[C@@H]2C[C@H]1C2(C)C (stereo partly shown) [Compound 120] |  | + |  |  | − |  |  |  |  |  | 
